Assay results published in ChEMBL document CHEMBL5120812, “Cytotoxic Nitrobenzoyl Sesquiterpenoids from an Antarctica Sponge-Derived Aspergillus insulicola” (J Nat Prod, 2022).
The source made the active and inactive calls. The rule behind the calls is not given here.

Legend:
[1] = tested on: ASPC1; test: Cytotoxicity against human ASPC1 cells assessed as inhibition of cell proliferation at 0.94 to 30 uM by SRB assay; assay type: functional, cell-based; settings: dose 0.94-30 µM, time 24-72 hrs, TDE = time-dependent effect
[2] = tested on: ASPC1; test: Induction of apoptosis in human ASPC1 cells assessed as increase in cleaved caspase 3 level incubated for 24 hrs by Western blot analysis; assay type: functional, cell-based; settings: dose 1.25-5 µM, DDE = dose-dependent effect
[3] = tested on: ASPC1; test: Upregulation of PARP expression in human ASPC1 cells incubated for 24 hrs in presence of gemcitabine by Western blot analysis; assay type: functional, cell-based
[4] = tested on: PANC-1; test: Induction of apoptosis in human PANC-1 cells assessed as increase in cleaved caspase 9 level incubated for 24 hrs by Western blot analysis; assay type: functional, cell-based; settings: dose 1.25-5 µM, DDE = dose-dependent effect
[5] = tested on: ASPC1; test: Induction of apoptosis in human ASPC1 cells assessed as viable cells at 5 uM incubated for 24 hrs by annexinV-FITC and PI staining based flow cytometry analysis (reference value: 96.0 %); assay type: functional; settings: read-out: Activity
[6] = tested on: PANC-1; test: Induction of apoptosis in human PANC-1 cells assessed as necrotic cells at 2.50 uM incubated for 24 hrs by annexinV-FITC and PI staining based flow cytometry analysis (reference value: 0.14 %); assay type: functional; settings: dose 2.5 µM
[7] = tested on: ASPC1; test: Induction of apoptosis in human ASPC1 cells assessed as viable cells at 1.25 uM incubated for 24 hrs by annexinV-FITC and PI staining based flow cytometry analysis (reference value: 96.0 %); assay type: functional; settings: read-out: Activity
[8] = tested on: PANC-1; test: Induction of apoptosis in human PANC-1 cells assessed as suppression of XIAP expression at upto 5 uM incubated for 24 hrs by Western blot analysis; assay type: functional, cell-based
[9] = tested on: PANC-1; test: Induction of apoptosis in human PANC-1 cells assessed as necrotic cells at 5 uM incubated for 24 hrs by annexinV-FITC and PI staining based flow cytometry analysis (reference value: 0.14 %); assay type: functional
[10] = tested on: ASPC1; test: Induction of apoptosis in human ASPC1 cells assessed as necrotic cells at 2.50 uM incubated for 24 hrs by annexinV-FITC and PI staining based flow cytometry analysis (reference value: 0.27 %); assay type: functional; settings: dose 2.5 µM
[11] = tested on: PANC-1; test: Induction of apoptosis in human PANC-1 cells assessed as early apototic cells at 1.25 uM incubated for 24 hrs by annexinV-FITC and PI staining based flow cytometry analysis (reference value: 4.66 %); assay type: functional
[12] = tested on: PANC-1; test: Cytotoxicity against human PANC-1 cells assessed as reduction in cell viability at 5 uM incubated for 24 hrs in presence of gemcitabine by SRB assay; assay type: functional, cell-based
[13] = tested on: ASPC1; test: Cytotoxicity against human ASPC1 cells assessed as reduction in cell viability at 5 uM incubated for 24 hrs in presence of gemcitabine by SRB assay; assay type: functional, cell-based
[14] = tested on: ASPC1; test: Induction of apoptosis in human ASPC1 cells assessed as increase in PARP level incubated for 24 hrs by Western blot analysis; assay type: functional, cell-based; settings: dose 1.25-5 µM, DDE = dose-dependent effect
[15] = tested on: PANC-1; test: Induction of apoptosis in human PANC-1 cells assessed as viable cells at 2.50 uM incubated for 24 hrs by annexinV-FITC and PI staining based flow cytometry analysis (reference value: 89.5 %); assay type: functional; settings: read-out: Activity
[16] = tested on: PANC-1; test: Cytotoxicity against human PANC-1 cells assessed as inhibition of cell growth incubated for 72 hrs by SRB assay; assay type: functional, cell-based; settings: PANC-1, 72 h
[17] = tested on: PANC-1; test: Inhibition of cell migration in human PANC-1 cells at 0.94 to 3.75 uM incubated for 24 hrs by wound healing assay; assay type: functional, cell-based; settings: dose 0.94-3.75 µM
[18] = tested on: ASPC1; test: Cytotoxicity against human ASPC1 cells assessed as inhibition of cell proliferation incubated for 24 to 72 hrs by SRB assay; assay type: functional, cell-based; settings: dose 0.94-30 µM, time 24-72 hrs, DDE = dose-dependent effect
[19] = tested on: PANC-1; test: Induction of apoptosis in human PANC-1 cells assessed as early apototic cells at 2.50 uM incubated for 24 hrs by annexinV-FITC and PI staining based flow cytometry analysis (reference value: 4.66 %); assay type: functional; settings: dose 2.5 µM
[20] = tested on: ASPC1; test: Induction of apoptosis in human ASPC1 cells assessed as necrotic cells at 1.25 uM incubated for 24 hrs by annexinV-FITC and PI staining based flow cytometry analysis (reference value: 0.27 %); assay type: functional
[21] = tested on: PANC-1; test: Induction of apoptosis in human PANC-1 cells assessed as viable cells at 1.25 uM incubated for 24 hrs by annexinV-FITC and PI staining based flow cytometry analysis (reference value: 89.5 %); assay type: functional; settings: read-out: Activity
[22] = tested on: ASPC1; test: Induction of apoptosis in human ASPC1 cells assessed as late apoptotic cells at 2.50 uM incubated for 24 hrs by annexinV-FITC and PI staining based flow cytometry analysis (reference value: 2.18 %); assay type: functional; settings: dose 2.5 µM
[23] = tested on: ASPC1; test: Induction of apoptosis in human ASPC1 cells assessed as late apoptotic cells at 5 uM incubated for 24 hrs by annexinV-FITC and PI staining based flow cytometry analysis (reference value: 2.18 %); assay type: functional
[24] = tested on: ASPC1; test: Induction of apoptosis in human ASPC1 cells assessed as late apoptotic cells at 1.25 uM incubated for 24 hrs by annexinV-FITC and PI staining based flow cytometry analysis (reference value: 2.18 %); assay type: functional
[25] = tested on: BXPC-3; test: Cytotoxicity against human BXPC-3 cells assessed as inhibition of cell growth incubated for 72 hrs by SRB assay; assay type: functional, cell-based; settings: BXPC-3, 72 h
[26] = tested on: ASPC1; test: Induction of apoptosis in human ASPC1 cells assessed as necrotic cells at 5 uM incubated for 24 hrs by annexinV-FITC and PI staining based flow cytometry analysis (reference value: 0.27 %); assay type: functional
[27] = tested on: PANC-1; test: Induction of apoptosis in human PANC-1 cells assessed as increase in PARP level incubated for 24 hrs by Western blot analysis; assay type: functional, cell-based; settings: dose 1.25-5 µM, DDE = dose-dependent effect
[28] = tested on: ASPC1; test: Upregulation of cleaved caspase 3 expression in human ASPC1 cells incubated for 24 hrs in presence of gemcitabine by Western blot analysis; assay type: functional, cell-based
[29] = tested on: PANC-1; test: Upregulation of PARP expression in human PANC-1 cells incubated for 24 hrs in presence of gemcitabine by Western blot analysis; assay type: functional, cell-based
[30] = tested on: ASPC1; test: Induction of apoptosis in human ASPC1 cells assessed as increase in caspase 3 enzymatic activity upto 5 uM incubated for 24 hrs by Western blot analysis; assay type: functional, cell-based
[31] = target: Epidermal growth factor receptor (Homo sapiens) (UniProt P00533); test: Inhibition of EGFR downstream signalling in human PANC-1 cells assessed as reduction of STAT3 phosphorylation upto 5 uM incubated for 24 hrs by Western blot analysis; assay type: cell-based
Chain of Epidermal growth factor receptor (Homo sapiens) (P00533 whole entry): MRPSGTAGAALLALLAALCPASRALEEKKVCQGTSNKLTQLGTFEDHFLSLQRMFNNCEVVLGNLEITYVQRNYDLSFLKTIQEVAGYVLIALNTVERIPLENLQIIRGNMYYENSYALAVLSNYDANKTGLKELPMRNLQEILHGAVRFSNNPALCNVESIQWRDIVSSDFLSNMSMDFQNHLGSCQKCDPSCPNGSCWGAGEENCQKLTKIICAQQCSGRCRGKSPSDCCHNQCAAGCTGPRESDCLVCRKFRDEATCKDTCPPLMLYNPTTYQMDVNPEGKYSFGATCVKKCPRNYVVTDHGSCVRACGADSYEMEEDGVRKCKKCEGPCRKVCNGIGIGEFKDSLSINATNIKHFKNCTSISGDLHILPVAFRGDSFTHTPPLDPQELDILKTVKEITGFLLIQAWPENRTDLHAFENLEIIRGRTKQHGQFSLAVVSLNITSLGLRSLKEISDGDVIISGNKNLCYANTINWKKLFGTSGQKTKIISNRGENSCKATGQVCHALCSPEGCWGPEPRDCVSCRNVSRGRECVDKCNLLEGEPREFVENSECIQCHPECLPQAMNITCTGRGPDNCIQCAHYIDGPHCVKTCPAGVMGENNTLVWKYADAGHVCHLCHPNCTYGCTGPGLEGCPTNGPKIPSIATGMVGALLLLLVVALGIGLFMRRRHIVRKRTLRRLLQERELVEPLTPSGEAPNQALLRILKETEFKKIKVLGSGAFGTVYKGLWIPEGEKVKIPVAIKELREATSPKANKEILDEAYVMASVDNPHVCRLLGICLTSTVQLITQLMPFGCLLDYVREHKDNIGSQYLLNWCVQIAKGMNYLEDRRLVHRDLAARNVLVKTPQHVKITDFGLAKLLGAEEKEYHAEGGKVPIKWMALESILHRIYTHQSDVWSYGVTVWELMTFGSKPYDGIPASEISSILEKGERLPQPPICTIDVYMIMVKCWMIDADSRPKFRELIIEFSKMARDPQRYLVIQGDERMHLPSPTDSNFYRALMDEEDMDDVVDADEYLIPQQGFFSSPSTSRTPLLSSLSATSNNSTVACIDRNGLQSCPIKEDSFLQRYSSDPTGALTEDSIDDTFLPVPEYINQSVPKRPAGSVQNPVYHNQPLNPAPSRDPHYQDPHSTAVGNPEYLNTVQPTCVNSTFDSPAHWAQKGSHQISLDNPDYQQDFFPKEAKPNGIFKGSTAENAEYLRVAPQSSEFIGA

For COC(=O)CCCCCCC/C=C/C(=O)OC[C@@]1(C)CCC[C@@]2(C)[C@H]1[C@H](OC(=O)c1ccc([N+](=O)[O-])cc1)C=C1C(=O)OC[C@@]12O, the Activity [1] was “Tde”, the Activity [2] was “Dde” and the Activity [3] was “Active”. For the same compound, the Activity [4] was “Dde”, the viability at 5 µM [5] was 85.1% and the Activity [6] was 0.25%. The viability at 1.25 µM [7] was 90.1%, the Activity [8] was “Active” and the Activity [9] was 0.11%. The Activity [10] was 0.38%, the Activity [11] was 5.99% and the Activity [12] was “Active”. The Activity [13] was “Active”, the Activity [14] was “Dde” and the viability at 2.5 µM [15] was 80.6%. The IC50 [16] was 4.2 µM, the inhibition [17] was “Active” and the Activity [18] was “Dde”. For the same compound, the Activity [19] was 5.58%, the Activity [20] was 0.2% and the viability at 1.25 µM [21] was 90.7%. For the same compound, the Activity [22] was 4.92%, the Activity [23] was 10.1% and the Activity [24] was 3.96%. The IC50 [25] was 4.88 µM, the Activity [26] was 1.79% and the Activity [27] was “Dde”. The Activity [28] was “Active”, the Activity [29] was “Active” and the Activity [30] was “Active”. The inhibition [31] was “Active”.
